Target: T1, Adrenergic receptor alpha-1 (Rattus norvegicus, UniProt P15823+P23944+P43140)
T1 sequence (P15823 whole entry): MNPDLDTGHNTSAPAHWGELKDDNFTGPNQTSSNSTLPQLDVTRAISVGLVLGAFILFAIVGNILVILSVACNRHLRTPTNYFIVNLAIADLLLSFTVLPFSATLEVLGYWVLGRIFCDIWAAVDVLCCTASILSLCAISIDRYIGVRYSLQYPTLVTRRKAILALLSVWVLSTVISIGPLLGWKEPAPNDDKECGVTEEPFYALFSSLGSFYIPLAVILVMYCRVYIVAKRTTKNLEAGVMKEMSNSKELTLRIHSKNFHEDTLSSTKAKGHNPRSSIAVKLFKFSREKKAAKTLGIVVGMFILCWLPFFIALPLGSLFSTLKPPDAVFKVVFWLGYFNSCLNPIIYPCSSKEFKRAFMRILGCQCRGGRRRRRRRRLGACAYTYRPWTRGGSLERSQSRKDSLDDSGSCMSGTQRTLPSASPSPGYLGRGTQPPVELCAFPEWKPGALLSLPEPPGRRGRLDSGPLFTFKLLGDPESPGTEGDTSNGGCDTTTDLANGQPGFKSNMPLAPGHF
T1 sequence (P23944 whole entry): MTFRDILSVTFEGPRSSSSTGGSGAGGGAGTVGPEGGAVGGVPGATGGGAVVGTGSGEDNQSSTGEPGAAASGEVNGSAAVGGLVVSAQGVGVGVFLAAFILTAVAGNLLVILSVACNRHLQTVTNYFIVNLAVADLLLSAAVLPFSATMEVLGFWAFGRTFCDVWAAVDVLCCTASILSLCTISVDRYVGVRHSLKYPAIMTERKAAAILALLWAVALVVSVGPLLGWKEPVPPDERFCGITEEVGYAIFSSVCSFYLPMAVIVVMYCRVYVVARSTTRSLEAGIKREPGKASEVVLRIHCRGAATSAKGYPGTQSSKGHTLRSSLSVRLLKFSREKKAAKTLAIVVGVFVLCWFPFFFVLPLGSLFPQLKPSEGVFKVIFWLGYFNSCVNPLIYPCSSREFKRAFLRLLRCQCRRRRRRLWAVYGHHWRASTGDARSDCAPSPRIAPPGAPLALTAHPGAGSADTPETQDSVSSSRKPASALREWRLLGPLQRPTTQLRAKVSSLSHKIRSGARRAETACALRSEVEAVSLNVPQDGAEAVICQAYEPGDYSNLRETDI
T1 sequence (P43140 whole entry): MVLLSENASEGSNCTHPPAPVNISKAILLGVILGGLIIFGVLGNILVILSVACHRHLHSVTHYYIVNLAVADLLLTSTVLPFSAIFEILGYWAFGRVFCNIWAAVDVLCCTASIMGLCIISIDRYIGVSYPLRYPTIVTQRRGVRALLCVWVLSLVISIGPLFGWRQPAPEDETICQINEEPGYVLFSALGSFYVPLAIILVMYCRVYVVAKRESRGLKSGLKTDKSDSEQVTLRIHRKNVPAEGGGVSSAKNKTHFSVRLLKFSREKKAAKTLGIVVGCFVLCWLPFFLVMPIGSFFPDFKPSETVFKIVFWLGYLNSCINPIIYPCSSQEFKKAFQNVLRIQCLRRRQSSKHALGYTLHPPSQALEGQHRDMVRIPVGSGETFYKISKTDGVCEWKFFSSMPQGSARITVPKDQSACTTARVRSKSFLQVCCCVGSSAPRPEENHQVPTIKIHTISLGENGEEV
Assay: Compound was evaluated for inhibition of [3H]prazosin binding to Alpha-1 adrenergic receptor in rat forebrain homogenate.
Type: tissue-based, Brain

Going from `CNC(C)C(O)c1ccc(O)c(O)c1` (stereo unspecified) [DIOXIFEDRINE] to `CN[C@@H](C)[C@H](O)c1ccc(O)c(O)c1`, the Ki rises from 28 µM to 146 µM (5.2-fold).

Compared with `C[C@H](N)[C@H](O)c1ccc(O)c(O)c1` (stereo in doubt; 1) [LEVONORDEFRIN], `CN[C@H](C)[C@@H](O)c1ccc(O)c(O)c1` is 1.5-fold higher in Ki: 7.3 µM for the first, 11 µM for the second.

Compound `C[C@H](N)[C@H](O)c1ccc(O)c(O)c1` (stereo in doubt; form 1) [LEVONORDEFRIN] has a Ki of 3.6 µM.
`C[C@H](N)[C@H](O)c1ccc(O)c(O)c1` (stereo in doubt; form 2) [LEVONORDEFRIN] gave a Ki of 2315 µM.

Source: ChEMBL document CHEMBL1121888, “(alpha S)-erythro-alpha-methylepinephrine: preparation and stereoselective binding to adrenergic receptors in rat forebrain” (J Med Chem, 1981)
